Where two headings read alike, the source gives them in different places.
Assays:
Format in all cases: cell-based
[1] = test system: PBMCs; assay: CTG (CellTiter-Glo) viability assay in PBMCs; details: LPS and nigericin stimulated
Summary of the method: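 Human donor PBMCs were primed with 100 ng/mL LPS for 3 h, pre-treated with compound (0.00017–10 µM) for 30 min in FBS-free medium, then stimulated with 10 µM nigericin for 1.5 h. Viability was read as cellular ATP by CellTiter-Glo, a cytotoxicity counter-screen to IL-1β release.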

[2] = test system: Kupffer cells; assay: CTG (CellTiter-Glo) viability assay in Kupffer cells; details: human Kupffer cells
Experimental: (§1) Human Kupffer cells (KCs), specialized liver macrophages residing in […], were obtained by gradient isolation from liver specimens harvested post-mortem by Samsara Sciences. Cells were obtained through an IRB approved donor program by Samsara Sciences and all donors tested negative for bacterial and viral infections.
(§2) Fresh or cryopreserved PMBCs were seeded in V-bottom 96-well plate at 0.5-1×10^5 cells per well and incubated overnight at 37° C. with 5% CO2 in RPMI 1640 medium with GlutaMAX supplement, 4.5 g/L D-glucose, 10% Fetal Bovine Serum (FBS), […] Sodium Pyruvate, 1% Penicillin/Streptomycin, 10 mM HEPES and 0.05 mM of β-mercaptoethanol. Freshly isolated or cryopreserved KCs cells were seeded in flat-bottom 96-well plates at 0.6-1.5×10^5 cells/well and incubated overnight at 37° C. 5% CO2 in RPMI 1640 Medium with GlutaMAX supplement, FBS, 1% Penicillin/Streptomycin and 10 mM HEPES. The following day, the cells were primed with 100 ng/mL of lipopolysaccharides (LPS; Sigma Aldrich) in FBS-free RPMI 1640 for 3 h. After the priming step, the media was removed and PBMCs were pre-incubated with serial concentrations of test compounds (0.00017-10 uM) or vehicle (DMSO) for 30 min in FBS-free media prior to addition of the NLRP3 activator. Cells were then stimulated with 10 uM Nigericin (Sigma Aldrich; InvivoGen) for 1.5 h. Plates were centrifuged at 1,500 rpm for 3 minutes to pellet cells and supernatant was transferred into new plates for subsequent experiments.
Viability of compound treated cells was measured using CellTiter-Glo® assay (Promega, Madison, Wis.) that measures the ATP content of cells which is proportional to the number of live cells within a well. This is a counter-screen to establish that the reduction of IL-1β levels in LPS and nigericin stimulated and compound treated cells is not due to cytotoxicity, but rather through the inhibition of the inflammasome pathway. Compounds inhibiting NRLP3 inflammasome activation ultimately increase the viability of LPS and nigericin stimulated cells by blocking NLRP3 mediated pyroptosis that would otherwise lead to cell lysis.

[3] = target: T1, NLRP3 inflammasome (Homo sapiens, UniProt Q96P20); assay: NLRP3 inflammasome activation assay in PBMCs, IL-1β release (ELISA / HTRF); design: were freshly isolated from human peripheral blood from healthy donors; StemCells Technologies; host or cells: primary human PBMCs, LPS-primed, nigericin-stimulated; details: LPS primed
T1 sequence (Q96P20 whole entry): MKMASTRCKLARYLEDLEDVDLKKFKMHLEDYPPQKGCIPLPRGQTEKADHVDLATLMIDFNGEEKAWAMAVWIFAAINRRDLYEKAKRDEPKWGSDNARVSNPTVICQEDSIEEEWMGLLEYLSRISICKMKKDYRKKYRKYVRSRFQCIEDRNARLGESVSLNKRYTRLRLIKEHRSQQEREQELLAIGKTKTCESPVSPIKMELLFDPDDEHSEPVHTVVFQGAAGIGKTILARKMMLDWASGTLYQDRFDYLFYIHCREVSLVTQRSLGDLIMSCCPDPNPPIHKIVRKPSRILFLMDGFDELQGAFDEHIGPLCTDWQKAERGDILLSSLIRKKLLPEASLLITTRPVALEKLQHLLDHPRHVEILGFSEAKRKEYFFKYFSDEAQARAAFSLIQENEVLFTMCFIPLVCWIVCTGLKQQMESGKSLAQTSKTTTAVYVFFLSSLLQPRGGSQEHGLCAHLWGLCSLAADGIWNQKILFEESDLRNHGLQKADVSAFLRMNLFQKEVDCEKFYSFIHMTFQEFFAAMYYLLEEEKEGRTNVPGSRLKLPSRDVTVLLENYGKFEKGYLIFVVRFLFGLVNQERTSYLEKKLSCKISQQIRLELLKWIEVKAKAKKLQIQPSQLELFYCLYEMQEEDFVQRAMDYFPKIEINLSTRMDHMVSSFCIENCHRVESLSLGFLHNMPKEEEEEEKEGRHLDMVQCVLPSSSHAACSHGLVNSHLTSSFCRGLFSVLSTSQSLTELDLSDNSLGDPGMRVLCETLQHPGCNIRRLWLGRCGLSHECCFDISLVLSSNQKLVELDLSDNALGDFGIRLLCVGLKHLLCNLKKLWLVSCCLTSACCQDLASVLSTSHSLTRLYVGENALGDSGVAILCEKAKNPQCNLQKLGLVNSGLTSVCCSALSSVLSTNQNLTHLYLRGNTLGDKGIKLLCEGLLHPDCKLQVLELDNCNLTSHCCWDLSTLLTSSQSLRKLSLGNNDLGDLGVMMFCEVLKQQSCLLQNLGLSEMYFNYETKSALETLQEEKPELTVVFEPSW
Summary of the method: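 Human PBMCs primed with 100 ng/mL LPS for 3 h, pre-treated with compound for 30 min (0.00017–10 µM, or from 40 µM in 2-fold 20-point series), then stimulated with 10 µM nigericin for 1.5 h at 37 °C. Released IL-1β in supernatant quantified by ELISA or by HTRF (665/620 ratio, overnight RT).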

[4] = target: T1, NLRP3 inflammasome; assay: NLRP3 inflammasome activation assay in Kupffer cells, IL-1β release; design: were freshly isolated from human peripheral blood from healthy donors; StemCells Technologies; host or cells: primary human PBMCs, LPS-primed, nigericin-stimulated; details: LPS primed, nigericin
Excerpt: Some of the following assays were used to determine the inhibitory activity of the compounds on the NLRP3 inflammasome using a common inflammasome activation stimuli—nigericin.
as §1, §2
(§3) For ELISA assays cells were seeded into 96-well plates. Post study, supernatants were removed and the levels of mature IL-1β, IL18 and TNFα (Quantikine ELISA, R&D systems) were measured in cell conditioned media by ELISA according to manufacturer's instructions.

[5] = test system: TNFα; assay: TNFα counter-screen in LPS and nigericin stimulated PBMCs; details: human PBMCs
Experimental: Human peripheral blood mononuclear cells (PBMCs), consisting of lymphocytes (T, B and NK cells), monocytes and dendritic cells, were freshly isolated from human peripheral blood from healthy donors. Cells were obtained through an IRB approved donor program by iXCells Biotechnologies where all the donors were tested for bacterial and viral infections. Cells were purified from peripheral blood using ficoll gradient centrifugation.
as §2, §3
(§4) TNFα levels of LPS and nigericin stimulated cells were measured by HTRF assay (Cisbio, Bedford, MA). […] Measuring TNFalpha production also serves as a technical counter-screen to eliminate compounds that interfere with the HTRF reagents. Thus compounds that inhibit both IL-1β and TNFα levels are triaged for either being non-selective for inflammasome or interfering with the HTRF readout.

[6] = test system: TNFα; assay: TNFα counter-screen in LPS and nigericin stimulated Kupffer cells; details: human Kupffer cells
Experimental: as §1, §2, §3, §4

[7] = target: T1, NLRP3 inflammasome; assay: THP-1 ASC-GFP speck assay; design: host or cells: THP-1 ASC-GFP cells, PMA-differentiated, LPS-primed, nigericin-stimulated; details: THP-1 ASC-GFP cells, PMA differentiated, LPS primed, 10 μM nigericin; read-out: THP1 ASC Speck IC50
Summary of the method: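 PMA-differentiated (500 ng/ml, overnight) THP-1 ASC-GFP cells primed with 1 μg/mL LPS for 3 h, preincubated 30 min with compound (top 40 μM, 2-fold, 20 points), then stimulated with 10 μM nigericin for 90 min at 37 °C. After fixation and Hoechst staining, imaging gave the percentage of cells bearing a GFP ASC speck.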

[8] = 10 uM nigericin, read-out: PBMC IL-1 β IC50
[9] = 10 μM nigericin, read-out: PBMC IL-1β IC50
[10] = human PBMCs, read-out: PBMC CTG IC50

Row | SMILES | IC50 ([1]; Homo sapiens, PBMC) [nM] | IC50 [2] [nM] | IC50 [3, 8] [nM] | IC50 ([4]; read-out: Kupffer IL-β B IC50) [nM] | IC50 [3, 9] [nM] | IC50 ([4]; read-out: Kupffer IL-1 β IC50) [nM] | IC50 [1, 10] [nM] | IC50 ([5]; read-out: PBMC TNFα IC50) [nM] | IC50 [6] [nM] | IC50 ([5]; PBMC) [nM] | IC50 [7] [nM] | IC50 ([5]; read-out: PBMC TNF α IC50) [nM] | IC50 ([6]; read-out: Kupffer TNF α IC50) [nM]
1 | NS(=O)(=NC(=O)Nc1c2c(cc3c1CCC3)CCC2)c1cnn2c1OCCC2 (stereo not drawn) | 100 to 1000 | 100 to 1000 | < 100 | 100 to 1000 | – | – | – | – | – | – | – | – | –
2 | NS(=O)(=NC(=O)Nc1c2c(cc3c1CCC3)CCC2)c1cnn2c1OCCC2 (racemic) [Example 1, N′-((1,2,3,5,6,7-hexahydro-s-indacen-4-yl)carbamoyl)-6,7-dihydro-5H-pyrazolo[5,1-b][1,3]oxazine-3-sulfonimidamide] | 300 | 103 | – | – | 82 | 123 | – | – | – | – | – | – | –
3 | COC1COc2c(S(N)(=O)=NC(=O)Nc3c4c(cc5c3CCC5)CCC4)cnn2C1 (single isomer, unassigned) [Example 20] | – | < 100 | – | – | 4 | < 100 | 19 | > 10000 | > 10000 | – | – | – | –
4 | CNC1COc2c(S(N)(=O)=NC(=O)Nc3c4c(cc5c3CCC5)CCC4)cnn2C1 (single isomer, unassigned) [Example 26] | – | 21 | – | – | 7.6 | 20 | 2 | – | > 10000 | > 10000 | 9.7 | – | –
5 | COC1COc2c(S(N)(=O)=NC(=O)Nc3c4c(c(F)c5c3CCC5)CCC4)cnn2C1 (single isomer, unassigned) [Example 31] | – | – | – | – | 150 | – | 20 | – | – | > 10000 | 620 | – | –
6 | COC1COc2c(S(N)(=O)=NC(=O)Nc3c4c(c(F)c5c3CCC5)CCC4)cnn2C1 (single isomer, unassigned) [Example 32] | – | – | – | – | 13 | – | 5 | > 10000 | – | – | 45 | – | –
7 | CN(C)C1COc2c(S(N)(=O)=NC(=O)Nc3c4c(cc5c3CCC5)CCC4)cnn2C1 (single isomer, unassigned) [Example 33] | 2 | – | – | – | 890 | – | – | – | – | > 10000 | 1600 | – | –
8 | CO[C@@H]1COc2c(S(=N)(=O)NC(=O)Nc3c4c(cc5c3CCC5)CCC4)cnn2C1 (stereo partly drawn) [drawing 668] | – | < 100 | < 100 | < 100 | – | – | < 100 | – | – | – | – | > 10000 | > 10000
9 | CN[C@@H]1COc2c(S(=N)(=O)NC(=O)Nc3c4c(cc5c3CCC5)CCC4)cnn2C1 (stereo partly drawn) [drawing 674] | – | < 100 | < 100 | < 100 | – | – | < 100 | – | – | – | – | > 10000 | > 10000
